Data published in patent publication US20260132132A1, “3A,4,5,6-TETRAHYDRO-1 H-PYRAZOLO[3,4-C]PYRIDIN-7(7AH)-ONE DERIVATIVES AS FACTOR XIIA INHIBITORS” (KALVISTA PHARMACEUTICALS LIMITED, priority 2022, published 2026).

Assays:
[1] = target: T1, Human Factor XIIa (hFXIIa) (Homo sapiens, UniProt P00748); experiment: Determination of Human Factor XIIa (hFXIIa) inhibition, fluorogenic substrate IC50 assay; assay type: biochemical; settings: fluorogenic substrate H-DPro-Phe-Arg-AFC at Km, 25° C., read-out: Human FXIIa IC50
T1 construct: purchased Enzyme Research Laboratories
T1 sequence (P00748 373-615 limits assumed): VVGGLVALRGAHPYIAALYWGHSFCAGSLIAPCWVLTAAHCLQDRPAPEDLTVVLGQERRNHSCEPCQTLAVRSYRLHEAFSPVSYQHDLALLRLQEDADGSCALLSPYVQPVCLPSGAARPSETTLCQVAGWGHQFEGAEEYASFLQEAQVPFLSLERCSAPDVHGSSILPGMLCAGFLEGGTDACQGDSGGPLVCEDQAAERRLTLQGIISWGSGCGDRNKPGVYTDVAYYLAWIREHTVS
T1 sequence (P00748 20-372 partner limits assumed): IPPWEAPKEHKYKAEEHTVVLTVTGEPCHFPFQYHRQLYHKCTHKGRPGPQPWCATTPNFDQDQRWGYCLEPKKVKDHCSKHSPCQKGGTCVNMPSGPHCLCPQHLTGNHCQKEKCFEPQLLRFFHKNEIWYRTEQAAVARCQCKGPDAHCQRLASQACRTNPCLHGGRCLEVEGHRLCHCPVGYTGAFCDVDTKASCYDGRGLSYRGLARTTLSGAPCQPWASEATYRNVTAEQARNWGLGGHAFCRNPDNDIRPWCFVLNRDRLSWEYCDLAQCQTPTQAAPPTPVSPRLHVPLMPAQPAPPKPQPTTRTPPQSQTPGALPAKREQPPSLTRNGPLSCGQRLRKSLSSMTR
Method: Determination of Human Factor XIIa (hFXIIa) inhibition
The Km for the cleavage of the substrate by hFXIIa was determined by standard transformation of the Michaelis-Menten equation, with subsequent inhibition assays performed at substrate Km concentration.

[2] = target: FXa (Homo sapiens, UniProt P00742); experiment: Related protease inhibition: FXa, fluorogenic substrate; assay type: biochemical; settings: fluorogenic substrate at Km, 25° C.; H1-H3 = % activity at 40 μM
Method: Human serine protease enzyme Plasma Kallikrein, KLK1, FXa, Plasmin, Thrombin and Trypsin were assayed for enzymatic activity using an appropriate fluorogenic substrate at Km concentration, FXIa at fixed substrate concentration of 100 μM and various concentrations of the test compound.

Sequence of FXa (P00742 235-488 limits assumed): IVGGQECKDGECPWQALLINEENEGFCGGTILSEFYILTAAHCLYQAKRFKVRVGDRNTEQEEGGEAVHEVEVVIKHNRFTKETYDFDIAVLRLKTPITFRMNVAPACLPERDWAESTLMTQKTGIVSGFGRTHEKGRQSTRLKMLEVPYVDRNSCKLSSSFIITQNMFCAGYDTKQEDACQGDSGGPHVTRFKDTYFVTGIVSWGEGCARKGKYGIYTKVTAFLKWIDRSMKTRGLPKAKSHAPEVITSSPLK
Sequence of FXa (P00742 41-179 partner limits assumed): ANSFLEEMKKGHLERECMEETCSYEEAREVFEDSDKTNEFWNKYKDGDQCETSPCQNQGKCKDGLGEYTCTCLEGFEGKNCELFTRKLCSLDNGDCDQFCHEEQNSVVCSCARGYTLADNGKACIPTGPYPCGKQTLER

Row | IC50 [1] | IC50 [2] | Compound
1 | 100 to 300 nM | 10000 to 40000 nM | COCCN1CCc2ccc(N3CCc4c(C(=O)NCc5cc(C)n(C)n5)nn(-c5cccc(Cl)c5)c4C3=O)cc2C1=O [Example 1262, 1-(3-chlorophenyl)-N-((1,5-dimethyl-1H-pyrazol-3-yl)methyl)-6-(2-(2-methoxyethyl)-1-oxo-1,2,3,4-tetrahydroisoquinolin-7-yl)-7-oxo-4,5,6,7-tetrahydro-1H-pyrazolo[3,4-c]pyridine-3-carboxamide]
2 | 300 to 1000 nM | 10000 to 40000 nM | Cc1cc(CNC(=O)c2nn(-c3cccc(Cl)c3)c3c2CCN(c2ccc4c(c2)C(=O)N(C)CC4)C3=O)n(C)n1 [Example 1264, 1-(3-chlorophenyl)-N-((1,3-dimethyl-1H-pyrazol-5-yl)methyl)-6-(2-methyl-1-oxo-1,2,3,4-tetrahydroisoquinolin-7-yl)-7-oxo-4,5,6,7-tetrahydro-1H-pyrazolo[3,4-c]pyridine-3-carboxamide]
3 | 300 to 1000 nM | > 40000 nM | CO[C@H]1CCOC[C@H]1NC(=O)c1nn(-c2cccc(Cl)c2)c2c1CCN(c1ccc3c(c1)C(=O)N(C)CC3)C2=O [Example 1265, 1-(3-chlorophenyl)-N-((3R,4S)-4-methoxytetrahydro-2H-pyran-3-yl)-6-(2-methyl-1-oxo-1,2,3,4-tetrahydroisoquinolin-7-yl)-7-oxo-4,5,6,7-tetrahydro-1H-pyrazolo[3,4-c]pyridine-3-carboxamide]
4 | 300 to 1000 nM | > 40000 nM | CN1CCc2ccc(N3CCc4c(C(=O)NC5(C)CCOCC5)nn(-c5cccc(Cl)c5)c4C3=O)cc2C1=O [Example 1266, 1-(3-chlorophenyl)-6-(2-methyl-1-oxo-1,2,3,4-tetrahydroisoquinolin-7-yl)-N-(4-methyltetrahydro-2H-pyran-4-yl)-7-oxo-4,5,6,7-tetrahydro-1H-pyrazolo[3,4-c]pyridine-3-carboxamide]
5 | 300 to 1000 nM | > 40000 nM | Cc1ccc(CNC(=O)c2nn(-c3cccc(Cl)c3)c3c2CCN(c2ccc4c(c2)C(=O)N(C)CC4)C3=O)nn1 [Example 1267, 1-(3-chlorophenyl)-6-(2-methyl-1-oxo-1,2,3,4-tetrahydroisoquinolin-7-yl)-N-((6-methylpyridazin-3-yl)methyl)-7-oxo-4,5,6,7-tetrahydro-1H-pyrazolo[3,4-c]pyridine-3-carboxamide]
6 | 100 to 300 nM | > 40000 nM | COc1ccncc1CNC(=O)c1nn(-c2cccc(Cl)c2)c2c1CCN(c1ccc3c(c1)C(=O)N(C)CC3)C2=O [Example 1271, 1-(3-chlorophenyl)-N-((4-methoxypyridin-3-yl)methyl)-6-(2-methyl-1-oxo-1,2,3,4-tetrahydroisoquinolin-7-yl)-7-oxo-4,5,6,7-tetrahydro-1H-pyrazolo[3,4-c]pyridine-3-carboxamide]
7 | 10 to 100 nM | 10000 to 40000 nM | Cc1cc(CNC(=O)c2nn(-c3cccc(Cl)c3)c3c2CCN(c2ccc4c(c2)C(=O)N(CCCO)CC4)C3=O)nn1C [Example 1275, 1-(3-chlorophenyl)-N-((1,5-dimethyl-1H-pyrazol-3-yl)methyl)-6-(2-(3-hydroxypropyl)-1-oxo-1,2,3,4-tetrahydroisoquinolin-7-yl)-7-oxo-4,5,6,7-tetrahydro-1H-pyrazolo[3,4-c]pyridine-3-carboxamide]
8 | 300 to 1000 nM | > 40000 nM | Cc1cnnc(CNC(=O)c2nn(-c3cccc(Cl)c3)c3c2CCN(c2ccc4c(c2)C(=O)N(C)CC4)C3=O)c1 [Example 1282, 1-(3-chlorophenyl)-6-(2-methyl-1-oxo-1,2,3,4-tetrahydroisoquinolin-7-yl)-N-((5-methylpyridazin-3-yl)methyl)-7-oxo-4,5,6,7-tetrahydro-1H-pyrazolo[3,4-c]pyridine-3-carboxamide]
9 | 1000 to 3000 nM | > 40000 nM | O=C(NCC1CC1)c1nn(-c2cccc(Cl)c2)c2c1CCN(c1cccc(N3CCCCC3=O)c1)C2=O [Example 1285, 1-(3-chlorophenyl)-N-(cyclopropylmethyl)-7-oxo-6-(3-(2-oxopiperidin-1-yl)phenyl)-4,5,6,7-tetrahydro-1H-pyrazolo[3,4-c]pyridine-3-carboxamide]
10 | 300 to 1000 nM | 10000 to 40000 nM | Cc1ccncc1CNC(=O)c1nn(-c2cccc(Cl)c2)c2c1CCN(c1cccc(N3CCCCC3=O)c1)C2=O [Example 1287, 1-(3-chlorophenyl)-N-((4-methylpyridin-3-yl)methyl)-7-oxo-6-(3-(2-oxopiperidin-1-yl)phenyl)-4,5,6,7-tetrahydro-1H-pyrazolo[3,4-c]pyridine-3-carboxamide]
11 | 10 to 100 nM | 10000 to 40000 nM | Cc1ccncc1CNC(=O)c1nn(-c2cccc(Cl)c2)c2c1CCN(c1ccc3c(c1)C(=O)N(CCO)CCO3)C2=O [Example 1299, 1-(3-chlorophenyl)-6-(4-(2-hydroxyethyl)-5-oxo-2,3,4,5-tetrahydrobenzo[f][1,4]oxazepin-7-yl)-N-((4-methylpyridin-3-yl)methyl)-7-oxo-4,5,6,7-tetrahydro-1H-pyrazolo[3,4-c]pyridine-3-carboxamide]
12 | 300 to 1000 nM | > 40000 nM | CC(=O)N1CCc2ccc(N3CCc4c(C(=O)NCc5cc(C)n(C)n5)nn(-c5cccc(Cl)c5)c4C3=O)cc21 [Example 1304, 6-(1-acetylindolin-6-yl)-1-(3-chlorophenyl)-N-((1,5-dimethyl-1H-pyrazol-3-yl)methyl)-7-oxo-4,5,6,7-tetrahydro-1H-pyrazolo[3,4-c]pyridine-3-carboxamide]
13 | 10 to 100 nM | 3000 to 10000 nM | Cc1cc(CNC(=O)c2nn(-c3cccc(Cl)c3)c3c2CCN(c2ccc4c(c2)C(=O)N(CCO)CCC4)C3=O)nn1C [Example 1305, 1-(3-chlorophenyl)-N-((1,5-dimethyl-1H-pyrazol-3-yl)methyl)-6-(2-(2-hydroxyethyl)-1-oxo-2,3,4,5-tetrahydro-1H-benzo[c]azepin-8-yl)-7-oxo-4,5,6,7-tetrahydro-1H-pyrazolo[3,4-c]pyridine-3-carboxamide]
14 | 10 to 100 nM | 10000 to 40000 nM | Cc1ccncc1CNC(=O)c1nn(-c2cccc(Cl)c2)c2c1CCN(c1ccc3c(c1)C(=O)N(CCO)CCC3)C2=O [Example 1306, 1-(3-chlorophenyl)-6-(2-(2-hydroxyethyl)-1-oxo-2,3,4,5-tetrahydro-1H-benzo[c]azepin-8-yl)-N-((4-methylpyridin-3-yl)methyl)-7-oxo-4,5,6,7-tetrahydro-1H-pyrazolo[3,4-c]pyridine-3-carboxamide]
15 | 100 to 300 nM | > 40000 nM | CN1CCc2ccc(N3CCc4c(C(=O)N[C@H](CO)c5ccccc5)nn(-c5cccc(Cl)c5)c4C3=O)cc2C1=O [Example 1307, (S)-1-(3-chlorophenyl)-N-(2-hydroxy-1-phenylethyl)-6-(2-methyl-1-oxo-1,2,3,4-tetrahydroisoquinolin-7-yl)-7-oxo-4,5,6,7-tetrahydro-1H-pyrazolo[3,4-c]pyridine-3-carboxamide]
16 | 300 to 1000 nM | > 40000 nM | Cc1cccnc1CNC(=O)c1nn(-c2cccc(Cl)c2)c2c1CCN(c1ccc3c(c1)C(=O)N(C)CC3)C2=O [Example 1308, 1-(3-chlorophenyl)-6-(2-methyl-1-oxo-1,2,3,4-tetrahydroisoquinolin-7-yl)-N-((3-methylpyridin-2-yl)methyl)-7-oxo-4,5,6,7-tetrahydro-1H-pyrazolo[3,4-c]pyridine-3-carboxamide]
17 | 100 to 300 nM | > 40000 nM | Cc1ncccc1CNC(=O)c1nn(-c2cccc(Cl)c2)c2c1CCN(c1ccc3c(c1)C(=O)N(C)CC3)C2=O [Example 1309, 1-(3-chlorophenyl)-6-(2-methyl-1-oxo-1,2,3,4-tetrahydroisoquinolin-7-yl)-N-((2-methylpyridin-3-yl)methyl)-7-oxo-4,5,6,7-tetrahydro-1H-pyrazolo[3,4-c]pyridine-3-carboxamide]
18 | 300 to 1000 nM | 10000 to 40000 nM | Cc1ccnnc1CNC(=O)c1nn(-c2cccc(Cl)c2)c2c1CCN(c1ccc3c(c1)C(=O)N(C)CC3)C2=O [Example 1310, 1-(3-chlorophenyl)-6-(2-methyl-1-oxo-1,2,3,4-tetrahydroisoquinolin-7-yl)-N-((4-methylpyridazin-3-yl)methyl)-7-oxo-4,5,6,7-tetrahydro-1H-pyrazolo[3,4-c]pyridine-3-carboxamide]
19 | 100 to 300 nM | 10000 to 40000 nM | CC(=O)N1CCCc2ccc(N3CCc4c(C(=O)NCc5cnccc5C)nn(-c5cccc(Cl)c5)c4C3=O)cc21 [Example 1314, 6-(1-acetyl-1,2,3,4-tetrahydroquinolin-7-yl)-1-(3-chlorophenyl)-N-((4-methylpyridin-3-yl)methyl)-7-oxo-4,5,6,7-tetrahydro-1H-pyrazolo[3,4-c]pyridine-3-carboxamide]
